According to patent US20080166807A1, “Autologous progenitor stem cells of gastrointestinal origin” (priority 2005, published 2008):
Where “and” joins values, the source holds several entries; their conditions need not be identical. Equal values may be shown once.

Tested on: GIP-C cells
Test: Attachment factors study with subcultured GIP-C cells (cell counts in supernatant and of attached cells)
Type: cell-based
Details: for Attaching of cells from 2-5 μm (comparison of attachment factors): cells 2-5 μm; for Cell counts in Supernatant, 2-5 μm / Cell counts of Attached cells, 2-5 μm / Cell counts of Attached cells, 5-8 μm / Cell counts in Supernatant, 5-8 μm: wells coated with attachment factor, RPMI 1640 media with supplements, two wells each
Description: Two of the six well plates were coated with the following attachment factors: Collagen type IV, Fibronectin, Superfibronectin, ECM gel and Laminin. Collagen type IV (2 mg/ml) was made by dissolving 0.75 mg of collagen in 375 μl of sterilized 0.25% acetic acid. Collagen type IV (187.5 μl) was used to coat two wells and Incubated overnight at 2-8° C. Fibronectin (250 μl of 10 μg/ml) was used to coat each well and air-dried at room temperature for 45 minutes. Superfibronectin (250 μl of 5 μg/ml) was used to coat each well and incubated at 37° C. for two hours. The wells were then washed twice with 100 μl of PBS, and left to air dry in a laminar flow hood. ECM gel was thawed overnight before use; 250 μl of ECM gel was mixed with 250 μl of cold DMEM medium before using 250 μl of the mixture to coat precooled wells. The ECM gel was then left for five minutes at 20° C. for the gel to polymerize. An aliquot of 200 μg/200 μl of laminin was thawed at 4° C. for 2-4 hrs before making a dilution using 36 μl of stock solution and diluting it with 464 μl of sterile PBS. Laminin (250 μl, 18 μg/well) was used to coat each well. The plates with laminin were then air-dried for 45 minutes. All of the plates containing the attachment factors were sterilized overnight by exposure to UV light in a sterile tissue culture hood.
RPMI 1640 media (250 ml) was obtained from Invitrogen (11875-085), to which the following supplements were added: 100 ng/ml of cholera-toxin (Sigma, C8052), 500 ng/ml of hydrocortisone (Sigma, H0888), 5% of heat inactivated horse serum (Gibco, 16050-130) and 25 ml of Mesenchymal supplement (Stemcell technologies, 05402). After the media was filter sterilized and aliquots of 26 ml were made, they were stored at 4° C.
RPMI 1640 media with all the supplements was warmed at 37° C. Two ml of the media was added to each well containing the attachment factors along with 3 control wells which contained no attachment factors. Cells previously subcultured in mesencult medium were pelleted and divided into 100,000 cells per well and incubated at 37° C. The cells were observed under a phase-contrast microscope. Once, every two days the top layer containing the unattached GIP-C cells was removed, washed and resuspended in freezing media. Two ml of RPMI 1640 media with the supplements was added to the wells and incubated at 37° C.
The gastrointestinal progenitor cells in culture were found mostly in suspension in the culture media. In order to test the adherence of these cells a study was conducted where they were plated on tissue culture wells coated with each of the five different epithelial cell attachment factors: collagen type IV, laminin, superfibronectin, fibronectin, and ECM gel. There were three control wells with no attachment factors in them.

Collagen type IV was tested, and the “Attaching of cells from 2-5 μm (comparison of attachment factors)” value was “seemed to be better at attaching cells”, the “Cell counts in Supernatant, 2-5 μm” value was 1.22E+07 Cells/ml and 1.60E+07 Cells/ml and the “Cell counts of Attached cells, 2-5 μm” value was 2.25E+06 Cells/ml and 1.19E+06 Cells/ml. For the same substance, the “Cell counts of Attached cells, 5-8 μm” value was 57486 Cells/ml.
With Fibronectin the “Cell counts in Supernatant, 5-8 μm” value was 68340 Cells/ml and 63918 Cells/ml and the “Cell counts of Attached cells, 2-5 μm” value was 68340 Cells/ml.
Laminin was tested, and the “Cell counts in Supernatant, 2-5 μm” value was 4.09E+07 Cells/ml and 3.04E+07 Cells/ml, the “Cell counts in Supernatant, 5-8 μm” value was 90048 Cells/ml and 84822 Cells/ml and the “Cell counts of Attached cells, 2-5 μm” value was 974448 Cells/ml and 643602 Cells/ml. For the same substance, the “Cell counts of Attached cells, 5-8 μm” value was 40602 Cells/ml and 43416 Cells/ml.
In the case of Superfibronectin, the “Attaching of cells from 2-5 μm (comparison of attachment factors)” value is reported as “seemed to be better at attaching cells”, the “Cell counts in Supernatant, 2-5 μm” value is reported as 3.96E+07 Cells/ml and 5.06E+07 Cells/ml and the “Cell counts in Supernatant, 5-8 μm” value is reported as 67536 Cells/ml and 54672 Cells/ml. The “Cell counts of Attached cells, 2-5 μm” value was 1.62E+06 Cells/ml and 1.35E+06 Cells/ml.
